Laboratory results published in patent US20250041279A1, “THERAPEUTIC MEDICINE FOR HEART DISEASE OR SKELETAL MUSCLE DISEASE” (SHIONOGI & CO., LTD., priority 2021, published 2025).

Key:
recombinant human ACC2 = recombinant human ACC2 (Homo sapiens (Human), UniProt O00763); assay: Measurement of inhibitory activity of human ACC2 (MALDI-TOF MS); format: biochemical; conditions: read-out: IC50 hACC2
From the text: A cDNA encoding human ACC2 protein (27 amino acid residues to 2458 amino acid residues from the N-terminus) was cloned from a human kidney cDNA library (Clontech Laboratories, Inc.), a His-tag sequence was introduced at the 5′ end, and then inserted into pFastBac1 (Invitrogen). A recombinant baculovirus was produced in accordance with the protocol for a Bac-to-Bac baculovirus expression system (Invitrogen), and Sf-9 cells were infected therewith to express human ACC2 protein. The recovered cells were crushed, filtered through a filter, and then subjected to Ni affinity chromatography and anion exchange chromatography. Fractions containing human ACC2 protein were collected to obtain recombinant human ACC2.
The recombinant human ACC1 and the recombinant human ACC2 obtained from the above Preparation Examples were preincubated in an assay buffer (50 mM HEPES-KOH (pH 7.4), 10 mM magnesium chloride, 6 to 10 mM potassium citrate, 4 mM glutathione reduced form, and 1.5 mg/ml bovine serum albumin) for 1 hour. […] Deprotonated ions of the substrate acetyl-CoA (AcCoA) and the reaction product malonyl-CoA (MalCoA) were detected, and the intensity of each signal was used to calculate a conversion rate to malonyl-CoA or succinyl-CoA, i.e., intensity of [MalCoA-H]—/(intensity of [MalCoA-H]-+intensity of [AcCoA.H].). […] The potassium citrate concentration in the assay buffer, the potassium bicarbonate concentration in the substrate solution, and the incubation time were adjusted within the above concentrations or reaction times for each lot of the enzyme to be used.

[1] = tested on: leptin receptor deficient mice (db/db mice); assay: Lipid in skeletal muscle cells (IMCL) in diabetes model mice, MRS; format: in vivo; conditions: 15 mg/kg single oral, 6 hours after administration
Protocol: In order to examine the influence of Compound I-12 on lipid in skeletal muscle cells (IMCL) of diabetes model mice, 6 hours after a single oral administration of a vehicle or Compound I-12 (15 mg/kg) to leptin receptor deficient mice (Leprdb/Leprdb, db/db; db/db mice), MR spectroscopy (MRS) data of the tibialis anterior muscle was measured using animal MRI (Varian MRI System 7T/210, Agilent Technologies) under isoflurane anesthesia. The measurement data was analyzed using software for quantitative analysis of MRS data (LCModel), and the quantity of IMCL was calculated as a creatine ratio.

ZDF rats = assay: Lipid in skeletal muscle cells (IMCL) in diabetes model rats, MRS; format: in vivo; conditions: oral twice a day (7 mg/kg then 10 or 23 mg/kg), 24 hours after first administration
Protocol: In order to examine the influence of Compound I-12 on lipid in skeletal muscle cells (IMCL) of diabetic model rats, vehicle or Compound I-12 was orally administered to a spontaneous diabetes model (ZDF rats) twice a day (first morning administration: 7 mg/kg; second afternoon administration: 10 or 23 mg/kg), and 24 hours after the first administration, MR spectroscopy (MRS) data of the tibialis anterior muscle were measured using animal MRI (Varian MRI System 7T/210, Agilent Technologies) under isoflurane anesthesia. The measurement data was analyzed using software for quantitative analysis of MRS data (LCModel), and the quantity of IMCL was calculated as a creatine ratio.

SD rats = assay: Lipid in skeletal muscle cells (IMCL) in SD rats, MRS; format: in vivo; conditions: 20 mg/kg single oral, 24 hours after administration
Protocol: In order to examine the influence of Compound I-13 on lipid in skeletal muscle cells (IMCL), 24 hours after a single oral administration of a vehicle or Compound I-13 (20 mg/kg) to SD rats, MR spectroscopy (MRS) data of the tibialis anterior muscle was measured using animal MRI (Varian MRI System 7T/210, Agilent Technologies) under isoflurane anesthesia. The measurement data was analyzed using software for quantitative analysis of MRS data (LCModel), and the quantity of IMCL was calculated as a creatine ratio.

Atgl knockout mice = assay: Spontaneous motility of Atgl knockout mice; format: in vivo; conditions: 45 mg/kg/10 mL repeated administration, 12 weeks of age, p<0.05, Welch's t test
Protocol: Atgl (adipose-triglyceride lipase) knockout mice are known as non clinical models of TGCV. Atgl knockout mice (KO mice) deficient in the Atgl gene were each produced by a known method.
In order to examine the influence of the compounds of the present invention on spontaneous motility, spontaneous motility of Atgl knockout mice was measured using SCANET MV-40 ([…]) at 12 weeks of age after repeated administration of vehicle or the compounds of the present invention to the Atgl knockout mice. The mice were allowed to stand in a cage placed in the device, and the motility thereof for 30 minutes was measured.

recombinant human ACC2, sequence (O00763 27-2458): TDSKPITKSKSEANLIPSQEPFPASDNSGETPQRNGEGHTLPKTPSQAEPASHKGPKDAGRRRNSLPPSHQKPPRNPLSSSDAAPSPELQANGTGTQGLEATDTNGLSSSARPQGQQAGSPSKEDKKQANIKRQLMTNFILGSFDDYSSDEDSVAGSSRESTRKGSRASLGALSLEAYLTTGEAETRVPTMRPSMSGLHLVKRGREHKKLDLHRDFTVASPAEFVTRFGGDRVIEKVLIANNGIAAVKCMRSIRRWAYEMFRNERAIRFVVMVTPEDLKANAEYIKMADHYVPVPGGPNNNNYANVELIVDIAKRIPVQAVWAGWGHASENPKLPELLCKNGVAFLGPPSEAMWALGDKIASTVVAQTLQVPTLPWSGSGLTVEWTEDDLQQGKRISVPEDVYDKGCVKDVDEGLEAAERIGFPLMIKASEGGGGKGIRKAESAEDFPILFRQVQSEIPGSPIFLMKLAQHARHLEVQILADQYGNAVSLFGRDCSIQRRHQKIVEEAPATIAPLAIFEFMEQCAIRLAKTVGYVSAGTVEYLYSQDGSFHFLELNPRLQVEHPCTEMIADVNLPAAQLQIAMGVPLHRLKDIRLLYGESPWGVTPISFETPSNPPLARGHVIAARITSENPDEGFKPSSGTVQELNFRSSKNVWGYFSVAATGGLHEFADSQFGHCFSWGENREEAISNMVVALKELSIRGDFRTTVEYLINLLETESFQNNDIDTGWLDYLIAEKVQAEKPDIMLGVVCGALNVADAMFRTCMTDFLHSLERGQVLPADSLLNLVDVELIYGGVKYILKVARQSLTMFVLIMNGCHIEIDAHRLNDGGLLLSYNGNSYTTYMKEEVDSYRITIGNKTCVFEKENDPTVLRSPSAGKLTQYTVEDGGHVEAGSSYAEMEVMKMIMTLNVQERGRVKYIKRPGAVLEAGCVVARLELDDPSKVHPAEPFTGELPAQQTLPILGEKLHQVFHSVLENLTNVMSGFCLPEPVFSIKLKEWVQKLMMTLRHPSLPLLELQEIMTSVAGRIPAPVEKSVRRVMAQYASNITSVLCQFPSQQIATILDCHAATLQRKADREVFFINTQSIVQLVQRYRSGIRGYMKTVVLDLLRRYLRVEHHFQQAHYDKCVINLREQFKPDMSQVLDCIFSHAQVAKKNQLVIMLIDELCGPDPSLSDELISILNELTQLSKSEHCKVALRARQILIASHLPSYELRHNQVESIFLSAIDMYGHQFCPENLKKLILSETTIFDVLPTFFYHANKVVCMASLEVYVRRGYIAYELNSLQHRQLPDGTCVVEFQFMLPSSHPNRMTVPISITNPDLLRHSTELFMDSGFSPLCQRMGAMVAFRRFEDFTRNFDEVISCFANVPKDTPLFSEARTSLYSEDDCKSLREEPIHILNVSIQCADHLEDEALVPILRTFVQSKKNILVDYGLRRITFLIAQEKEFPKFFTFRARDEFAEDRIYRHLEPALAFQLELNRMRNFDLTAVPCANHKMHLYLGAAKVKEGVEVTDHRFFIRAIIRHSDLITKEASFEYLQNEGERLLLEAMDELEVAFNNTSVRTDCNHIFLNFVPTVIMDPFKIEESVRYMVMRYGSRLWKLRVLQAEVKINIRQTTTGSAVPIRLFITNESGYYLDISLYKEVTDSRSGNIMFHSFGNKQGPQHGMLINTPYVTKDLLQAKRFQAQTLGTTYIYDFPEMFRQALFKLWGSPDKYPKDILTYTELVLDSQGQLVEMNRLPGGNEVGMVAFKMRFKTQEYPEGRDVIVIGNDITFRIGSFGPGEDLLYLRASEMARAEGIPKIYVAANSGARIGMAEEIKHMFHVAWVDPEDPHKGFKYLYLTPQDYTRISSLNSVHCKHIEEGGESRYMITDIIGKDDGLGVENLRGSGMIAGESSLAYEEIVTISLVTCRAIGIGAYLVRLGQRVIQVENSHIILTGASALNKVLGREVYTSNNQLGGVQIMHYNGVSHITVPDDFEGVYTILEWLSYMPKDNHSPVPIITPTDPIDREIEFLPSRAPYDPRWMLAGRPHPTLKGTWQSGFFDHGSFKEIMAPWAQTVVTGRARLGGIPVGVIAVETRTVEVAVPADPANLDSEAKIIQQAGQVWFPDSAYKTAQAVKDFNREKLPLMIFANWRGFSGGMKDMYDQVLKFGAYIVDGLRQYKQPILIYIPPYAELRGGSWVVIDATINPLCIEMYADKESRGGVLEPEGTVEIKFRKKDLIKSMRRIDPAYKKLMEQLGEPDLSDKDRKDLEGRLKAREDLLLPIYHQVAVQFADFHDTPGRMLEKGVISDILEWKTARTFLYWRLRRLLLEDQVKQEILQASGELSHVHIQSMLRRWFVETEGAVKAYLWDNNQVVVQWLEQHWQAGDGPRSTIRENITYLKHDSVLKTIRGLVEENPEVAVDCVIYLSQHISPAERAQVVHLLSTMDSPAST

| SMILES | IC50 (recombinant human ACC2) [nM] | IMCL (creatine ratio), tibialis anterior muscle [1] | IMCL (creatine ratio), tibialis anterior muscle (ZDF rats) | IMCL (creatine ratio), tibialis anterior muscle (SD rats) | spontaneous motility (30 minutes) (Atgl knockout mice) |
| --- | --- | --- | --- | --- | --- |
| C[C@@H](COC1CCC(Oc2nc3c(F)cc(OC4CC4)cc3n2C)CC1)NC(N)=O (stereo partly drawn) [Compound I-12] | 5.6 | significant IMCL decreasing effect | significant IMCL decreasing effect | – | – |
| CC(=O)N[C@@H](C)CCC1OCC(Oc2nc3c(F)c(OC4CC4)ccc3n2C)CO1 (stereo partly drawn) [Compound I-13] | 6.6 | – | – | significant IMCL decreasing effect | significant improving effect |
